According to patent publication US20230293591A1, “Therapeutic Substances, their Preparation and Diagnostic Procedure” (KING'S COLLEGE LONDON, priority 2017, published 2023):
Where a SMILES comes first, the peptide text is derived from it. The star is where a group is joined. Cbz = O=C(OCc1ccccc1)*; CH2F = FC*

Columns and labels:
[1] = test system: GvHD effector cells (CD8+Vβ8.3+); experiment: Mouse GvHD model: infiltration of GvHD effector cells in spleen and lungs by flow-cytometry; format: in vivo; conditions: GvHD mice, IDO inhibitor 2 mg/ml in drinking water from 6 days prior to MSC injection
Description: Acute GvHD was induced as previously described (T. Toubai et al. Blood, 119, 3844-3853 (2012)). Briefly, after lethal irradiation (11 Gy), recipient C57BL/6 male mice were transplanted with 1×10^6 purified CD8+ cells transgenic for a T-cell receptor specific for the male HY-antigen Uty (Matahari, Mh) from female Mh mice as GvHD effectors (FIG. 9A), 5×10^6 unfractionated bone marrow (BM) and 2×10^6 purified polyclonal CD4+ cells from female syngeneic donors (C57BL/6 wild-type donors). The control group received BM and purified CD4+ cells only. CD4+ and CD8+ T cells were obtained by positive selection using magnetic beads (Miltenyi Biotec Ltd, Bisley, UK). Live MSC (1×10^6) were injected i.v. at day +3, whilst apoMSC (1×10^6) were administered i.v. or i.p. at day +1, +3 and +6 from the transplant. Unless otherwise specified, animals were euthanized for analysis at day +7. The infiltration of GvHD effector cells was assessed by flow-cytometry and the percentage was expressed as proportion of cells in the lymphocyte gate, based on the physical characteristics of the cells.
In this model, the expansion of the T cells effecting GvHD (CD8+Vβ8.3+) can be precisely enumerated.

[2] = test system: caspase 3; experiment: Caspase 3 activation in MSC cultured with activated PBMC (FRET-MSC); format: cell-based, human
Experimental: Luc-MSC were transfected with the pGL3-Control vector containing the SV40 promoter for the expression of Luc+ (Promega, Southampton, UK) or with pECFPDEVDR-Venus (Addgene, Teddington, UK) using electroporation (Gene Pulser Xcell, BioRad, Kidlington, UK). Cells were suspended in a total volume of 250 μl of buffer and electroporated in 0.4 cm gap cuvettes using 10 μg of DNA at 250 volts and […]. When pECFP-DEVDR-Venus was used, the donor fluorophore pECFP and the acceptor Venus-YFP were linked through the flexible linker DEVDR which is recognized and cleaved by the active form of caspase 3. In this system caspase 3 activity can be monitored through the analysis of the Förster Resonance Energy Transfer (FRET) between pECFP and Venus-YFP. […]
The following antibodies specific for murine molecules were used: anti-CD45 (FITC, Clone 30-F11) (eBiosciences Ltd, Hatfield, UK), anti-Vβ8.3 (FITC, Clone 1B3.3), antiCD8 (APC, Clone 53-6.7), antiCD4 (PE, Clone H129.19), anti-CD19 (APC-H7, Clone 1D3), anti-NK1.1 (PerCP-Cy5.5, Clone PK136) (BD Biosciences, Oxford, UK), anti-CD11b (PerCP-Cy5.5, clone M1/70), anti-CD11c (APC-Cy7, clone n418), anti-Ido1 (Alexa Fluo647, clone 2e2) (BioLegend, London, UK). […] All samples were acquired using BD FACS Canto II using the software FACS Diva and analyzed with Flow-jo software. […]

[3] = test system: PGE2; experiment: PGE2 ELISA in supernatant of MSC co-cultured with IBD patients' PBMC; format: cell-based, human; conditions: MSC (5×10^4) and patients PBMC (1×10^6), 24 hours, inhibitor 50 μM
Experimental: In particular MSC (5×10^4) and patients PBMC (1×10^6) were co-cultured for 24 hours, either with or without addition of a pan-caspase inhibibtor, Z-VAD-FMK (50 μM).
Supernatant was collected and PGE2 levels were measured by ELISA.

SMILES | beneficial effect of MSC on Mh T cell infiltration [1] | caspase activation in MSC induced by activated PBMC in presence of inhibitor [2] | PGE2 levels in supernatant [3]
Cn1cc(C[C@@H](N)C(=O)O)c2ccccc21 [1-DMT, 1-methyl-D-tryptophan] | much reduced |  | 
COC(=O)C[C@H](NC(=O)[C@H](C)NC(=O)[C@@H](NC(=O)OCc1ccccc1)C(C)C)C(=O)CF [Z-VAD-FMK] (Cbz-Val-Ala-Asp(OMe)-CH2F) |  | completely abrogated | largely reduce
